Experimental data as given in PubChem BioAssay AID2060617 (Molecular Pharmacology Branch, DTP, NCI, 2025).
Values joined by “and” are separate entries in the source; they are usually repeats but may differ in a detail not shown here. Identical values can stand only once.

Tested on: 485368-065-R4-J2-PDC spheroids with HUVEC/MSC, viability
Experiment: Anticancer human tumor 485368-065-R4-J2-PDC patient-derived pancreatic carcinoma cell line growth inhibition [CLK]
Conditions: for viability, T/C: stronger effect = lower value
Procedure, shortened: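 Multi-cell-type spheroids combined patient-derived tumor cells with HUVEC endothelial cells and human mesenchymal stem cells. Paired agents were dosed in half-log steps down from about clinical Cmax, or from 10 microM where Cmax was unknown.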

[1] = curve of first compound, second compound 0.0316 µM
[2] = curve of first compound, second compound 0.1 µM
[3] = curve of first compound, second compound 0.316 µM
[4] = curve of first compound, second compound 1 µM
[5] = curve of first compound, second compound 3.16 µM
[6] = curve of first compound, second compound 10 µM
[7] = second compound 0.0316 µM, first compound 0.0316 µM
[8] = second compound 0.0316 µM, first compound 0.1 µM
[9] = second compound 0.0316 µM, first compound 0.316 µM
[10] = second compound 0.0316 µM, first compound 1 µM
[11] = second compound 0.0316 µM, first compound 3.16 µM
[12] = second compound 0.0316 µM, first compound 10 µM
[13] = second compound 0.1 µM, first compound 0.0316 µM
[14] = second compound 0.1 µM, first compound 0.1 µM
[15] = second compound 0.1 µM, first compound 0.316 µM
[16] = second compound 0.1 µM, first compound 1 µM
[17] = second compound 0.1 µM, first compound 3.16 µM
[18] = second compound 0.1 µM, first compound 10 µM
[19] = second compound 0.316 µM, first compound 0.0316 µM
[20] = second compound 0.316 µM, first compound 0.1 µM
[21] = second compound 0.316 µM, first compound 0.316 µM
[22] = second compound 0.316 µM, first compound 1 µM
[23] = second compound 0.316 µM, first compound 3.16 µM
[24] = second compound 0.316 µM, first compound 10 µM
[25] = second compound 1 µM, first compound 0.0316 µM
[26] = second compound 1 µM, first compound 0.1 µM
[27] = second compound 1 µM, first compound 0.316 µM
[28] = second compound 1 µM, first compound 1 µM
[29] = second compound 1 µM, first compound 3.16 µM
[30] = second compound 1 µM, first compound 10 µM
[31] = second compound 3.16 µM, first compound 0.0316 µM
[32] = second compound 3.16 µM, first compound 0.1 µM
[33] = second compound 3.16 µM, first compound 0.316 µM
[34] = second compound 3.16 µM, first compound 1 µM
[35] = second compound 3.16 µM, first compound 3.16 µM
[36] = second compound 3.16 µM, first compound 10 µM
[37] = second compound 10 µM, first compound 0.0316 µM
[38] = second compound 10 µM, first compound 0.1 µM
[39] = second compound 10 µM, first compound 0.316 µM
[40] = second compound 10 µM, first compound 1 µM
[41] = second compound 10 µM, first compound 3.16 µM
[42] = second compound 10 µM, first compound 10 µM
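Further: spheroids exposed to compounds for seven days.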
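Wherever viability, T/C is given: 100% = DMSO vehicle control wells.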

Nc1ccccc1NC(=O)c1ccc(CNC(=O)OCc2cccnc2)cc1 + CNC(=O)c1ccc(Nc2nc(OC3CCCC3)c3c(-c4ccc5nc(C)oc5c4)c[nH]c3n2)c(OC)c1
IC50 [1]: 6710 nM
IC50 [2]: 6550 nM
IC50 [3]: 6730 nM
IC50 [4]: 5720 nM
IC50 [5]: 5100 nM
IC50 [6]: 5510 nM
viability, T/C [7]: 89.6%
viability, T/C [8]: 96.7%
viability, T/C [9]: 94.7%
viability, T/C [10]: 90.3%
viability, T/C [11]: 82.8%
viability, T/C [12]: 32.4%
viability, T/C [13]: 92.1%
viability, T/C [14]: 93.8%
viability, T/C [15]: 102%
viability, T/C [16]: 87.3%
viability, T/C [17]: 81.7%
viability, T/C [18]: 31.9%
viability, T/C [19]: 74.4%
viability, T/C [20]: 79.8%
viability, T/C [21]: 83.9%
viability, T/C [22]: 89.7%
viability, T/C [23]: 83.2%
viability, T/C [24]: 33.1%
viability, T/C [25]: 86%
viability, T/C [26]: 80.8%
viability, T/C [27]: 71.3%
viability, T/C [28]: 77.9%
viability, T/C [29]: 70.6%
viability, T/C [30]: 30.6%
viability, T/C [31]: 71.5%
viability, T/C [32]: 74.8%
viability, T/C [33]: 72.2%
viability, T/C [34]: 65.9%
viability, T/C [35]: 65.6%
viability, T/C [36]: 29.3%
viability, T/C [37]: 67.6%
viability, T/C [38]: 73.9%
viability, T/C [39]: 67.8%
viability, T/C [40]: 73.6%
viability, T/C [41]: 69.8%
viability, T/C [42]: 28.6%

CC(=O)O[C@H]1C(=O)[C@@]2(C)[C@H]([C@H](OC(=O)c3ccccc3)[C@]3(O)C[C@H](OC(=O)[C@H](O)[C@@H](NC(=O)c4ccccc4)c4ccccc4)C(C)=C1C3(C)C)[C@]1(OC(C)=O)CO[C@@H]1C[C@@H]2O + CN1CCN(c2cc(C(=O)Nc3cc4cc(-c5cnn(C)c5)ccc4cn3)ccn2)CC1
IC50 [1]: < 31.6 nM
IC50 [2]: < 31.6 nM
IC50 [3]: < 31.6 nM
IC50 [4]: < 31.6 nM
IC50 [5]: < 31.6 nM
IC50 [6]: < 31.6 nM
viability, T/C [7]: 49.1%
viability, T/C [8]: 41.3%
viability, T/C [9]: 38.5%
viability, T/C [10]: 46.2%
viability, T/C [11]: 39.5%
viability, T/C [12]: 55.3%
viability, T/C [13]: 37.3%
viability, T/C [14]: 39.4%
viability, T/C [15]: 30.8%
viability, T/C [16]: 36%
viability, T/C [17]: 36.8%
viability, T/C [18]: 45.2%
viability, T/C [19]: 30.7%
viability, T/C [20]: 28.5%
viability, T/C [21]: 28.2%
viability, T/C [22]: 25.4%
viability, T/C [23]: 28.7%
viability, T/C [24]: 35.5%
viability, T/C [25]: 0.77%
viability, T/C [26]: 0.76%
viability, T/C [27]: 0.7%
viability, T/C [28]: 1.78%
viability, T/C [29]: 1%
viability, T/C [30]: 1.89%
viability, T/C [31]: 2.34%
viability, T/C [32]: 2.46%
viability, T/C [33]: 1.31%
viability, T/C [34]: 2.13%
viability, T/C [35]: 1.56%
viability, T/C [36]: 3.41%
viability, T/C [37]: 1.54%
viability, T/C [38]: 2.06%
viability, T/C [39]: 2.24%
viability, T/C [40]: 1.65%
viability, T/C [41]: 2.6%
viability, T/C [42]: 1.89%

COc1cccc2c1C(=O)c1c(O)c3c(c(O)c1C2=O)CC(O)(C(=O)CO)CC3OC1CC(N)C(O)C(C)O1 (stereo not drawn) + CN1CCN(c2cc(C(=O)Nc3cc4cc(-c5cnn(C)c5)ccc4cn3)ccn2)CC1
IC50 [1]: 340 nM
IC50 [2]: 215 nM
IC50 [3]: 86.9 nM
IC50 [4]: < 31.6 nM
IC50 [5]: < 31.6 nM
IC50 [6]: < 31.6 nM
viability, T/C [7]: 97.5%
viability, T/C [8]: 91.9%
viability, T/C [9]: 51.1%
viability, T/C [10]: 22.8%
viability, T/C [11]: 6.06%
viability, T/C [12]: 20.1%
viability, T/C [13]: 95.9%
viability, T/C [14]: 81.3%
viability, T/C [15]: 34.5%
viability, T/C [16]: 13.1%
viability, T/C [17]: 5.58%
viability, T/C [18]: 20.2%
viability, T/C [19]: 69.8%
viability, T/C [20]: 47.2%
viability, T/C [21]: 12.7%
viability, T/C [22]: 6.03%
viability, T/C [23]: 8.55%
viability, T/C [24]: 26.6%
viability, T/C [25]: 0.88%
viability, T/C [26]: 0.73%
viability, T/C [27]: 1.56%
viability, T/C [28]: 5.86%
viability, T/C [29]: 12.6%
viability, T/C [30]: 28.8%
viability, T/C [31]: 1.17%
viability, T/C [32]: 1.22%
viability, T/C [33]: 2.37%
viability, T/C [34]: 6.61%
viability, T/C [35]: 14.8%
viability, T/C [36]: 30.9%
viability, T/C [37]: 1.73%
viability, T/C [38]: 1.28%
viability, T/C [39]: 2.28%
viability, T/C [40]: 8.69%
viability, T/C [41]: 14.6%
viability, T/C [42]: 27.2%

C=CC(=O)N1CCN(c2nc(=O)n(-c3c(C)ccnc3C(C)C)c3nc(-c4c(O)cccc4F)c(F)cc23)C(C)C1 (stereo not drawn)
viability, T/C (compound 0.0316 µM): 96.8% and 96.9%
viability, T/C (compound 0.1 µM): 96.4% and 107%
viability, T/C (compound 0.316 µM): 99.8% and 100%
viability, T/C (compound 1 µM): 97.9% and 106%
viability, T/C (compound 3.16 µM): 92.3% and 88.3%
viability, T/C (compound 10 µM): 89.2% and 93.7%
IC50 (curve of compound): > 10000 nM
